Measurements from ChEMBL document CHEMBL4765227, “Hit to lead optimization of a series of N-[4-(1,3-benzothiazol-2-yl)phenyl]acetamides as monoacylglycerol lipase inhibitors with potential anticancer activity” (Eur J Med Chem, 2016).

How the values were obtained:
Format in all cases: functional
Malme-3M = test: Growth inhibition of human Malme-3M cells at 10 uM incubated for 48 hrs by sulforhodamine B assay relative to control; conditions: read-out: GI
786-0 = test: Growth inhibition of human 786-0 cells at 10 uM incubated for 48 hrs by sulforhodamine B assay relative to control; conditions: read-out: GI
CAKI-1 = test: Growth inhibition of human CAKI-1 cells at 10 uM incubated for 48 hrs by sulforhodamine B assay relative to control; conditions: read-out: GI
NCI/ADR-RES [1] = test: Growth inhibition of human NCI/ADR-RES cells at 10 uM incubated for 48 hrs by sulforhodamine B assay relative to control; conditions: read-out: GI
NCI-H460 [2] = test: Growth inhibition of human NCI-H460 cells at 10 uM incubated for 48 hrs by sulforhodamine B assay relative to control; conditions: read-out: GI
OVCAR-3 = test: Growth inhibition of human OVCAR-3 cells at 10 uM incubated for 48 hrs by sulforhodamine B assay relative to control; conditions: read-out: GI
OVCAR-5 = test: Growth inhibition of human OVCAR-5 cells at 10 uM incubated for 48 hrs by sulforhodamine B assay relative to control; conditions: read-out: GI
Hs-578T = test: Growth inhibition of human Hs-578T cells at 10 uM incubated for 48 hrs by sulforhodamine B assay relative to control; conditions: read-out: GI
EKVX = test: Growth inhibition of human EKVX cells at 10 uM incubated for 48 hrs by sulforhodamine B assay relative to control; conditions: read-out: GI
NCI-H226 = test: Growth inhibition of human NCI-H226 cells at 10 uM incubated for 48 hrs by sulforhodamine B assay relative to control; conditions: read-out: GI
COLO 205 = test: Growth inhibition of human COLO 205 cells at 10 uM incubated for 48 hrs by sulforhodamine B assay relative to control; conditions: read-out: GI
IGROV-1 = test: Growth inhibition of human IGROV-1 cells at 10 uM incubated for 48 hrs by sulforhodamine B assay relative to control; conditions: read-out: GI
NCI-H322M [3] = test: Growth inhibition of human NCI-H322M cells at 10 uM incubated for 48 hrs by sulforhodamine B assay relative to control; conditions: read-out: GI
A498 = test: Growth inhibition of human A498 cells at 10 uM incubated for 48 hrs by sulforhodamine B assay relative to control; conditions: read-out: GI
SW-620 [4] = test: Growth inhibition of human SW-620 cells at 10 uM incubated for 48 hrs by sulforhodamine B assay relative to control; conditions: read-out: GI
SK-MEL-2 = test: Growth inhibition of human SK-MEL-2 cells at 10 uM incubated for 48 hrs by sulforhodamine B assay relative to control; conditions: read-out: GI
MDA-MB-231 = test: Growth inhibition of human MDA-MB-231 cells incubated for 48 hrs by sulforhodamine B assay
HL-60(TB) = test: Growth inhibition of human HL-60(TB) cells incubated for 48 hrs by sulforhodamine B assay; conditions: for CC50: read-out: LC50 (the source's name)
NCI-H460 [5] = test: Growth inhibition of human NCI-H460 cells incubated for 48 hrs by sulforhodamine B assay; conditions: for CC50: read-out: LC50 (the source's name)
SNB-19 = test: Growth inhibition of human SNB-19 cells incubated for 48 hrs by sulforhodamine B assay
A549 = test: Growth inhibition of human A549/ATCC cells incubated for 48 hrs by sulforhodamine B assay; conditions: for CC50: read-out: LC50 (the source's name)
ACHN = test: Growth inhibition of human ACHN cells incubated for 48 hrs by sulforhodamine B assay
HCT-116 = test: Growth inhibition of human HCT-116 cells incubated for 48 hrs by sulforhodamine B assay; conditions: for CC50: read-out: LC50 (the source's name)
NCI-H322M [6] = test: Growth inhibition of human NCI-H322M cells incubated for 48 hrs by sulforhodamine B assay
KM12 = test: Growth inhibition of human KM12 cells incubated for 48 hrs by sulforhodamine B assay
NCI/ADR-RES [7] = test: Growth inhibition of human NCI/ADR-RES cells incubated for 48 hrs by sulforhodamine B assay
OVCAR-8 = test: Growth inhibition of human OVCAR-8 cells incubated for 48 hrs by sulforhodamine B assay
SN12C = test: Growth inhibition of human SN12C cells incubated for 48 hrs by sulforhodamine B assay
DU-145 = test: Growth inhibition of human DU-145 cells incubated for 48 hrs by sulforhodamine B assay
PC-3 = test: Growth inhibition of human PC-3 cells incubated for 48 hrs by sulforhodamine B assay; conditions: for CC50: read-out: LC50 (the source's name)
SW-620 [8] = test: Growth inhibition of human SW-620 cells incubated for 48 hrs by sulforhodamine B assay
HCC 2998 = test: Growth inhibition of human HCC 2998 cells incubated for 48 hrs by sulforhodamine B assay; conditions: for CC50: read-out: LC50 (the source's name)
NCI-H23 = test: Growth inhibition of human NCI-H23 cells incubated for 48 hrs by sulforhodamine B assay
HOP-92 = test: Growth inhibition of human HOP-92 cells incubated for 48 hrs by sulforhodamine B assay
U-251 = test: Growth inhibition of human U-251 cells incubated for 48 hrs by sulforhodamine B assay

O=C(Cn1nnc2ccccc21)Nc1ccc(-c2nc3ccccc3s2)cc1
inhibition of growth at 10 µM (Malme-3M): 3.07%
inhibition of growth at 10 µM (786-0): 5.01%
inhibition of growth at 10 µM (CAKI-1): 14.5%
inhibition of growth at 10 µM (NCI/ADR-RES [1]): 3.77%
inhibition of growth at 10 µM (NCI-H460 [2]): 17%
inhibition of growth at 10 µM (OVCAR-3): 9.56%
inhibition of growth at 10 µM (OVCAR-5): -4.45%
inhibition of growth at 10 µM (Hs-578T): -11.5%
inhibition of growth at 10 µM (EKVX): 21.8%
inhibition of growth at 10 µM (NCI-H226): 32.5%
inhibition of growth at 10 µM (COLO 205): -5.13%
inhibition of growth at 10 µM (IGROV-1): 2.46%
inhibition of growth at 10 µM (NCI-H322M [3]): -2.72%
inhibition of growth at 10 µM (A498): 14.9%
inhibition of growth at 10 µM (SW-620 [4]): 5.47%
inhibition of growth at 10 µM (SK-MEL-2): -0.54%

O=C(CNc1c(Cl)cccc1Cl)Nc1ccc(-c2nc3ccccc3s2)cc1
GI50 (MDA-MB-231): 2.73 µM
LC50 (concentration causing 50% cell kill) (MDA-MB-231): > 100 µM
TGI (MDA-MB-231): 7.35 µM
GI50 (HL-60(TB)): 2.43 µM
TGI (HL-60(TB)): 8.38 µM
CC50 (HL-60(TB)): > 100 µM
GI50 (NCI-H460 [5]): 3.36 µM
TGI (NCI-H460 [5]): 12.4 µM
CC50 (NCI-H460 [5]): 43 µM
GI50 (SNB-19): 2.5 µM
LC50 (SNB-19): 80 µM
TGI (SNB-19): 9.28 µM
inhibition of growth at 10 µM (Malme-3M): 150%
GI50 (A549): 3.65 µM
TGI (A549): 16.9 µM
CC50 (A549): > 100 µM
inhibition of growth at 10 µM (786-0): 75.9%
GI50 (ACHN): 1.82 µM
LC50 (ACHN): 6.63 µM
TGI (ACHN): 3.47 µM
inhibition of growth at 10 µM (CAKI-1): 71.2%
GI50 (HCT-116): 2.14 µM
TGI (HCT-116): 6.14 µM
CC50 (HCT-116): 29 µM
inhibition of growth at 10 µM (NCI/ADR-RES [1]): 36%
inhibition of growth at 10 µM (NCI-H460 [2]): 8.81%
GI50 (NCI-H322M [6]): 1.8 µM
LC50 (concentration killing 50% of cells) (NCI-H322M [6]): 7.07 µM
TGI (NCI-H322M [6]): 3.57 µM
inhibition of growth at 10 µM (OVCAR-3): 45.6%
inhibition of growth at 10 µM (OVCAR-5): -10.4%
GI50 (KM12): 2.47 µM
LC50 (concentration killing 50% of cells) (KM12): 22.3 µM
TGI (KM12): 6.17 µM
GI50 (NCI/ADR-RES [7]): 3.06 µM
LC50 (NCI/ADR-RES [7]): > 100 µM
TGI (NCI/ADR-RES [7]): 8.06 µM
inhibition of growth at 10 µM (Hs-578T): 12.8%
GI50 (OVCAR-8): 2.64 µM
LC50 (OVCAR-8): > 100 µM
TGI (OVCAR-8): 8.9 µM
GI50 (SN12C): 2.49 µM
LC50 (SN12C): 86.1 µM
TGI (SN12C): 8.08 µM
GI50 (DU-145): 3.33 µM
LC50 (concentration killing 50% of cells) (DU-145): 32.2 µM
TGI (DU-145): 10.4 µM
inhibition of growth at 10 µM (NCI-H226): 45.6%
GI50 (PC-3): 1.73 µM
TGI (PC-3): 3.47 µM
CC50 (PC-3): 6.98 µM
GI50 (SW-620 [8]): 2.01 µM
LC50 (concentration killing 50% of cells) (SW-620 [8]): 9.85 µM
TGI (SW-620 [8]): 4.45 µM
GI50 (HCC 2998): 1.89 µM
TGI (HCC 2998): 3.56 µM
CC50 (HCC 2998): 6.68 µM
inhibition of growth at 10 µM (COLO 205): 12.3%
inhibition of growth at 10 µM (IGROV-1): 50.7%
inhibition of growth at 10 µM (NCI-H322M [3]): 5.42%
GI50 (NCI-H23): 2 µM
LC50 (lethal concentration 50%) (NCI-H23): 17.1 µM
TGI (NCI-H23): 4.59 µM
GI50 (HOP-92): 1.88 µM
LC50 (concentration killing 50% of cells) (HOP-92): 26.7 µM
TGI (HOP-92): 6.3 µM
inhibition of growth at 10 µM (SW-620 [4]): 64.7%
inhibition of growth at 10 µM (SK-MEL-2): 15.2%
GI50 (U-251): 2.02 µM
LC50 (lethal concentration 50) (U-251): 9.45 µM
TGI (U-251): 4.37 µM

O=C(CNc1ccc(Cl)cc1)Nc1ccc(-c2nc3ccccc3s2)cc1
GI50 (MDA-MB-231): 2.86 µM
LC50 (concentration causing 50% cell kill) (MDA-MB-231): > 100 µM
TGI (MDA-MB-231): 10.3 µM
GI50 (HL-60(TB)): 2.23 µM
TGI (HL-60(TB)): 6.05 µM
CC50 (HL-60(TB)): > 100 µM
GI50 (NCI-H460 [5]): 3.73 µM
TGI (NCI-H460 [5]): 13.1 µM
CC50 (NCI-H460 [5]): 39.8 µM
GI50 (SNB-19): 2.81 µM
LC50 (SNB-19): 57.9 µM
TGI (SNB-19): 10.2 µM
inhibition of growth at 10 µM (Malme-3M): 130%
GI50 (A549): 3.31 µM
TGI (A549): 13.7 µM
CC50 (A549): > 100 µM
inhibition of growth at 10 µM (786-0): 73%
GI50 (ACHN): 2.31 µM
LC50 (ACHN): 18.2 µM
TGI (ACHN): 5.57 µM
inhibition of growth at 10 µM (CAKI-1): 79.8%
GI50 (HCT-116): 1.84 µM
TGI (HCT-116): 3.91 µM
CC50 (HCT-116): 8.3 µM
inhibition of growth at 10 µM (NCI/ADR-RES [1]): 35.5%
inhibition of growth at 10 µM (NCI-H460 [2]): 12.9%
GI50 (NCI-H322M [6]): 2 µM
LC50 (concentration killing 50% of cells) (NCI-H322M [6]): 12.3 µM
TGI (NCI-H322M [6]): 4.65 µM
inhibition of growth at 10 µM (OVCAR-3): 71.1%
inhibition of growth at 10 µM (OVCAR-5): -21.1%
GI50 (KM12): 3.24 µM
LC50 (concentration killing 50% of cells) (KM12): 33.5 µM
TGI (KM12): 11.1 µM
GI50 (NCI/ADR-RES [7]): 3.03 µM
LC50 (NCI/ADR-RES [7]): > 100 µM
TGI (NCI/ADR-RES [7]): 8.5 µM
inhibition of growth at 10 µM (Hs-578T): 15.9%
GI50 (OVCAR-8): 2.56 µM
LC50 (OVCAR-8): > 100 µM
TGI (OVCAR-8): 7.06 µM
GI50 (SN12C): 2.74 µM
LC50 (SN12C): 73.4 µM
TGI (SN12C): 8.49 µM
GI50 (DU-145): 3.34 µM
LC50 (concentration killing 50% of cells) (DU-145): 32.1 µM
TGI (DU-145): 10.3 µM
inhibition of growth at 10 µM (NCI-H226): 41.9%
GI50 (PC-3): 2.01 µM
TGI (PC-3): 5.13 µM
CC50 (PC-3): 17.9 µM
GI50 (SW-620 [8]): 1.89 µM
LC50 (concentration killing 50% of cells) (SW-620 [8]): 8.08 µM
TGI (SW-620 [8]): 3.9 µM
GI50 (HCC 2998): 1.9 µM
TGI (HCC 2998): 3.54 µM
CC50 (HCC 2998): 6.58 µM
inhibition of growth at 10 µM (COLO 205): 53%
inhibition of growth at 10 µM (IGROV-1): 65.7%
inhibition of growth at 10 µM (NCI-H322M [3]): 19.7%
GI50 (NCI-H23): 2.04 µM
LC50 (lethal concentration 50%) (NCI-H23): 21.6 µM
TGI (NCI-H23): 4.7 µM
GI50 (HOP-92): 2.4 µM
LC50 (concentration killing 50% of cells) (HOP-92): 37.8 µM
TGI (HOP-92): 8.11 µM
inhibition of growth at 10 µM (SW-620 [4]): 77.4%
inhibition of growth at 10 µM (SK-MEL-2): 21.5%
GI50 (U-251): 1.94 µM
LC50 (lethal concentration 50) (U-251): 7.84 µM
TGI (U-251): 3.9 µM
